Reference: US8198273B2, “Compounds and methods for kinase modulation, and indications therefor” (Plexxikon Inc., priority 2009, dated 2012)
pIC50: −log10 of the molar value.

Legend:
[1] = system: SKMEL2 melanoma cells (Ras mutation); experiment: SKMEL2 cell growth inhibition (ATPlite); assay type: cell-based; details: Homo sapiens, SK-MEL-2, 72 h; SKMEL2, 3 days incubation
Procedure: (§1) Compounds are assessed in a variety of cell based assays. For example human cell lines with B-Raf V600E mutation (A375 melanoma, SKMEL3 melanoma, and COL0205 colon adenocarcinoma), as well as tumorigenic cell lines with wild-type B-RAF (SW620 colon adenocarcinoma) or with Ras mutations (SKMEL2 melanoma and IPC298 melanoma). Similar assays may be used to assess additional tumorigenic cell lines with Ras mutations, including, but not limited to, M202, M207, M243, M244, M296, S117, HCT116, HCT15, DLD1, MiaPaCa, A549, NCI-H23, NCI-H460, HOP62, MDA-MB231, Hs-578T, HL60, MOLT-4, and CCRF-CEM.
(§2) On day 1, cells are counted, then centrifuged in a conical tube for 5 minutes at 1000 rpm. The supernatant is removed and cells are re-suspended as follows: • SW620 (ATCC catalog #CCL-27): resuspend in Leibovitz's L-15 medium, 2 mM L-glutamine, 10% fetal bovine serum to 6×10^4 cells/mL. • A375 (ATCC catalog #CRL-1619): resuspend in Dulbecco's modified Eagle's medium, 4 mM L-glutamine, 4.5 g/L D-glucose, 10% fetal bovine serum to 6×10^4 cells/mL. • COL0205 (ATCC catalog #CCL-222): resuspend in RPMI 1640, 2 mM L-glutamine, 1.5 g/L sodium bicarbonate, 4.5 g/L D-glucose, 10 mM HEPES, 1.0 mM sodium pyruvate, 10% fetal bovine serum to 6×10^4 cells/mL. • SKMEL2 (ATCC catalog #HTB-68): resuspend in Minimum Eagle essential medium, 2 mM L-glutamine, 1.5 g/L sodium bicarbonate, 0.1 mM non-essential amino acids, 1.0 mM sodium pyruvate, 10% fetal bovine serum to 6×10^4 cells/mL. • SKMEL3 (ATCC catalog #HTB-69): resuspend in McCoy's 5A medium, 1.5 mM L-glutamine, 15% fetal bovine serum to 6×10^4 cells/mL. • IPC298 (DSMZ catalog #ACC 251): resuspend in RPMI 1640, 2 mM L-glutamine, 10% fetal bovine serum to 6×10^4 cells/mL.
(§3) The cells are plated, 50 μL in each well of a 96-well dish (Corning 3610) and incubated at 37° C. in 5% CO2 overnight, cells plated to a final concentration of cells as follows:
SKMEL2: 2,000 cells per well.
(§4) On day 2, compound at a maximum concentration of 5 mM is serially diluted 1:3 for a total of 8 point titration with DMSO as a control. A 1 μL aliquot of each dilution point and control is added to 249 μL growth media and 50 μL is added to a well containing cells, providing 10 μM compound at the maximum concentration point. The cells are incubated for 3 days at 37° C. in 5% CO2.
(§5) On day 5, ATPlite 1 step Luminescence Assay System (Perkin Elmer #6016739) is brought to room temperature along with the cell cultures. ATPlite is added 25 μL to each well, shake for 2 minutes, and the cells are incubated at room temperature for 10 minutes, then luminescence is read on Safire reader. The measured luminescence correlates directly with cell number, such that the reading as a function of compound concentration is used to determine the IC50 value.
(§6) It is understood that the results of these assays may vary as assay conditions are varied. Inhibition levels determined under the conditions described herein represent a relative activity for the compounds tested under the specific conditions employed. The cell based assays are likely to show variability due to the complexity of the system and the sensitivity thereof to any changes in the assay conditions. […] Results for compounds that are tested and show substantially no inhibition below the highest tested concentration are represented as “-” in the tables below. In some instances, the compounds were not tested in all of the assays, or assay results were not valid, as indicated by NA in the tables below.

[2] = Relative solubility by turbidity in aqueous buffers of varying pH; assay type: physicochemical
Procedure: As an indication of relative solubility, the turbidity of compounds in aqueous solutions is assessed. To assess possible compound properties in different physiological compartments, such as stomach, intestine, and blood, a series of aqueous buffers with varying pH is used. Thus each compound is diluted into four different physiologically relevant buffers and solution turbidity is measured by spectrophotometry.
Compounds are dissolved at a concentration of 25 mM in dimethyl sulfoxide, then serially diluted 1:1 into a 96 well plate, diluting 10 times in pure dimethyl sulfoxide, with the final well of each row a dimethyl sulfoxide blank. In an assay plate, 99 μL of appropriate buffer is added to each well, and 1 μL of each sample dilution is added to the buffer, achieving a range of final total concentrations in aqueous solutions having different pH. The buffers used are Simulated Gastric Fluid (SGF-pH 1.5) 0.5M NaCl, pH 1.5; Simulated Intestinal fluid (SIF-pH 4.5 and pH 6.8) 0.05M NaH2PO4, pH 4.5 and 6.8; and Hepes Buffer (HEPES-pH 7.4) 10 mM HEPES, 150 mM NaCl, pH 7.4. Control compounds pyrene, estriol and propranolol HCl are also assessed. Plates are spun and then mixed for 1 minute, and the absorbance is read using a Tecan Safire II to read wavelengths in the visible range (490, 535, and 650 nm) at four locations per well, reflecting the degree of turbidity present. The average optical density for each wavelength in each well is graphed vs. compound concentration, and the concentration at which the curve crosses a threshold O.D. of 0.01 for each wavelength is reported as the endpoint turbidity assay result. The average of the three wavelengths is used to compare turbidity of compounds. Compounds are considered to have low solubility if the threshold concentration is <31.3 04, moderate solubility if the threshold concentration is 31.3 μM to 250 μM, and high solubility if the threshold concentration is >250 μM.

[3] = system: A375 melanoma cells (B-Raf V600E); experiment: A375 cell growth inhibition (ATPlite); assay type: cell-based; details: Homo sapiens, A-375, 72 h; A375, 3 days incubation
Procedure: as §1, §2, §3, §4, §5, §6

[4] = system: SW620 colon adenocarcinoma cells (wild-type B-RAF); experiment: SW620 cell growth inhibition (ATPlite); assay type: cell-based; details: Homo sapiens, SW-620, 72 h; SW620, 3 days incubation
Procedure: as §1, §2, §3, §4, §5, §6

[5] = system: COLO205 colon adenocarcinoma cells (B-Raf V600E); experiment: COLO205 cell growth inhibition (ATPlite); assay type: cell-based; details: Homo sapiens, COLO 205, 72 h; COLO205, 3 days incubation
Procedure: as §1, §2, §3, §4, §5, §6

B-Raf = B-Raf (Homo sapiens, UniProt P15056); experiment: B-Raf biochemical kinase inhibition (AlphaScreen, biotin-MEK1 substrate); details: 100 μM ATP
Sequence of B-Raf (P15056 whole entry): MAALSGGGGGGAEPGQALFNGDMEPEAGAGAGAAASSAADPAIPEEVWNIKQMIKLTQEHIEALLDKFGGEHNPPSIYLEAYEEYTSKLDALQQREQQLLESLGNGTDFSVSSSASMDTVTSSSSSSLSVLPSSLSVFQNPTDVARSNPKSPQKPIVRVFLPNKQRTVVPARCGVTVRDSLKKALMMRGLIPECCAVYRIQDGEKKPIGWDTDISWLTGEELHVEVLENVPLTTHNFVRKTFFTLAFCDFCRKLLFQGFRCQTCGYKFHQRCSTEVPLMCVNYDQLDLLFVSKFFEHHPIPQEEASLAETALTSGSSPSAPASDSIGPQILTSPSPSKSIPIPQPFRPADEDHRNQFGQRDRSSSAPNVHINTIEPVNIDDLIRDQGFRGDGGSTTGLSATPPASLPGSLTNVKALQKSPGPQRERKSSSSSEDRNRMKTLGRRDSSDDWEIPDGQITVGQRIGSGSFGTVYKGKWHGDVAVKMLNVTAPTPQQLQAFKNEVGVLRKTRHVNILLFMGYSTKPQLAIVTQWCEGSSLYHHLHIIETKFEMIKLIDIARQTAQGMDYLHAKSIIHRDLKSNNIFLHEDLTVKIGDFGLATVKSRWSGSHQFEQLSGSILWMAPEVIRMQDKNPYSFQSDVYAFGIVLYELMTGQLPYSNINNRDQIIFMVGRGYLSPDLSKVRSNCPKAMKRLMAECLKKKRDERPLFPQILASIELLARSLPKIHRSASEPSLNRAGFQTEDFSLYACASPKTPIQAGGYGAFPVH
Procedure: (§7) Compounds to be tested are diluted in dimethyl sulfoxide to a concentration of 0.1 mM. These are serially diluted 15 μL into 30 μL of dimethyl sulfoxide seven times in 96 well plates for a total of 8 dilution points, and for each dilution point 1 μL is added to a well of an assay plate. […] The reaction is started with addition of 10 μL of 200 μM ATP (i.e. final 100 μM ATP). […] The plates are incubated for 3 hours at room temperature and read on Envision reader (Perkin Elmer). […] The signal vs. compound concentration is used to determine the IC50.

B-Raf V600E = B-Raf V600E (Homo sapiens, UniProt P15056, V600E); experiment: B-Raf V600E biochemical kinase inhibition (AlphaScreen, biotin-MEK1 substrate); details: 100 μM ATP
Sequence of B-Raf V600E (P15056 whole entry V600E): as the sequence (P15056 whole entry) above, with V600E counted along it
Procedure: as §7

CYP1A2 = target: T1, CYP1A2 (Homo sapiens, UniProt P05177); experiment: CYP1A2 inhibition (fluorescent substrate); assay type: in vitro ADME; details: CYP1A2, CEC substrate; read-out: Cyp IC50 1A2
T1 sequence (P05177 1-516): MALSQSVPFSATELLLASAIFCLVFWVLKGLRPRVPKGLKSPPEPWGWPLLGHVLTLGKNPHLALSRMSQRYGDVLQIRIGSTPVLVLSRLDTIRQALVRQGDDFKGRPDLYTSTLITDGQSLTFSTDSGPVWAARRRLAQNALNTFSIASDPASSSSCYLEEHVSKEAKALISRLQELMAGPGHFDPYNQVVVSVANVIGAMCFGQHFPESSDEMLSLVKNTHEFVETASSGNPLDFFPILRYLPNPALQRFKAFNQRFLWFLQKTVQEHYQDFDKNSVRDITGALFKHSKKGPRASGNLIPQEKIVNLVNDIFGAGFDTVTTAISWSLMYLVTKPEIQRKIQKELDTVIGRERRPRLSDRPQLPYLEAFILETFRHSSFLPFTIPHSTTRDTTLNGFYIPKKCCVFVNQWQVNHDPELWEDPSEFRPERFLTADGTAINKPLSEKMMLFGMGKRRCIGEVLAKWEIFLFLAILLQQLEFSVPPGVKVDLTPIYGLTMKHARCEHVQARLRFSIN
Procedure: (§8) CYP (Cytochrome P450) enzymes are the major drug metabolizing enzymes present in the liver. The inhibition of CYP enzyme activity (IC50) for each of CYP1A2, CYP2C19, CYP2C9, CYP2D6, CYP3A4(BFC) and CYP3A4(BQ) is determined for compounds, where inhibition of metabolism of a known substrate leads to a decrease in the fluorescence of the metabolized product. The fluorescence of the product is monitored as a function of compound concentration.
(§9) Compounds are dissolved in dimethyl sulfoxide to a concentration of 100 mM. These are diluted 1 μL into 82 μL of acetonitrile. […] These are then serially diluted 1:1 (160 μL to 160 μL co-factor mix) for a total of 10 points. A 10 μL aliquot of this final mixture is dispensed into 384 well assay plates and incubated for 10 minutes at 37° C. […] Assay plates are incubated at 37° C. […] The signal versus compound concentration is used to determine the IC50. The enzymes and substrates for this assay are obtained from BD Biosciences.

CYP3A4(BQ) = CYP3A4(BQ) (Homo sapiens, UniProt P08684); experiment: CYP3A4(BQ) inhibition (fluorescent substrate); assay type: in vitro ADME; details: read-out: Cyp IC50 3A4(BQ)
Sequence of CYP3A4(BQ) (P08684 whole entry): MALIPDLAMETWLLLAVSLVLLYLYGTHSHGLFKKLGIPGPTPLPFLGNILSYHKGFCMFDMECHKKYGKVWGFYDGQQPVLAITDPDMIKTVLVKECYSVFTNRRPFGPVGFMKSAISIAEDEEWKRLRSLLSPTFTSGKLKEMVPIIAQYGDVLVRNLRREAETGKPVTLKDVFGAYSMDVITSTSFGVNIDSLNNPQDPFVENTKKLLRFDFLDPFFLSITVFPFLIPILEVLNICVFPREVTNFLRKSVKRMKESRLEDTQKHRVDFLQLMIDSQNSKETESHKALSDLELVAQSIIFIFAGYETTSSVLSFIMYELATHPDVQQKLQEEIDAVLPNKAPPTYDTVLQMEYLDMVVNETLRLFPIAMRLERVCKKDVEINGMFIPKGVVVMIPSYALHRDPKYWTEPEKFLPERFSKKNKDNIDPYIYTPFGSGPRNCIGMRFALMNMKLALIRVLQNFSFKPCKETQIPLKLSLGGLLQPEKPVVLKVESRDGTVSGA
Procedure: as §9, with “CYP (Cytochrome P450) enzymes are the major drug metabolizing enzymes present in the liver. The inhibition of CYP enzyme activity (IC50) for each of CYP1A2, CYP2C19, CYP2C9, CYP2D6, CYP3A4(BFC) and CYP3A4(BQ) is determined for compounds, where inhibition of metabolism of a known substrate leads to a decrease in the fluorescence of the metabolized product. The fluorescence of the product is monitored as a function of compound concentration. Compounds” for “Compounds”

CYP2C9 = CYP2C9 (Homo sapiens, UniProt P11712); experiment: CYP2C9 inhibition (fluorescent substrate); assay type: in vitro ADME; details: CYP2C9, MFC substrate; read-out: Cyp IC50 2C9
Sequence of CYP2C9 (P11712 whole entry): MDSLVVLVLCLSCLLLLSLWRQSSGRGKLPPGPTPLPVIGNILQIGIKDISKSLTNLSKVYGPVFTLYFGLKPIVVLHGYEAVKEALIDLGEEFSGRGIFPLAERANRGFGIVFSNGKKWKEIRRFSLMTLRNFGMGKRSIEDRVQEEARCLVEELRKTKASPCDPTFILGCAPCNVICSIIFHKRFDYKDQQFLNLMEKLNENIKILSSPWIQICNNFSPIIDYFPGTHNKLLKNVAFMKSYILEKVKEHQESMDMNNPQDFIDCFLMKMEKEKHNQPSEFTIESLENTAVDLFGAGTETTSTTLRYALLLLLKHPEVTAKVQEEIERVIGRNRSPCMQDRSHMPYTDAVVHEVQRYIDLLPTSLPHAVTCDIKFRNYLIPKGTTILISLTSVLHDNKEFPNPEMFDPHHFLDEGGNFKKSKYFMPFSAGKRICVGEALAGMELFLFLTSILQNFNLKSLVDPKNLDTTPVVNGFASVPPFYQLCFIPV
Procedure: as §8, §9

CYP3A4(BFC) = CYP3A4(BFC) (Homo sapiens, UniProt P08684); experiment: CYP3A4(BFC) inhibition (fluorescent substrate); assay type: in vitro ADME; details: read-out: Cyp IC50 3A4(BFC)
Sequence of CYP3A4(BFC) (P08684 whole entry): as the sequence (P08684 whole entry) above
Procedure: as §9, with “CYP (Cytochrome P450) enzymes are the major drug metabolizing enzymes present in the liver. The inhibition of CYP enzyme activity (IC50) for each of CYP1A2, CYP2C19, CYP2C9, CYP2D6, CYP3A4(BFC) and CYP3A4(BQ) is determined for compounds, where inhibition of metabolism of a known substrate leads to a decrease in the fluorescence of the metabolized product. The fluorescence of the product is monitored as a function of compound concentration. Compounds” for “Compounds”

CYP2C19 = CYP2C19 (Homo sapiens, UniProt P33261); experiment: CYP2C19 inhibition (fluorescent substrate); assay type: in vitro ADME; details: CYP2C19, CEC substrate; read-out: Cyp IC50 2C19
Sequence of CYP2C19 (P33261 whole entry): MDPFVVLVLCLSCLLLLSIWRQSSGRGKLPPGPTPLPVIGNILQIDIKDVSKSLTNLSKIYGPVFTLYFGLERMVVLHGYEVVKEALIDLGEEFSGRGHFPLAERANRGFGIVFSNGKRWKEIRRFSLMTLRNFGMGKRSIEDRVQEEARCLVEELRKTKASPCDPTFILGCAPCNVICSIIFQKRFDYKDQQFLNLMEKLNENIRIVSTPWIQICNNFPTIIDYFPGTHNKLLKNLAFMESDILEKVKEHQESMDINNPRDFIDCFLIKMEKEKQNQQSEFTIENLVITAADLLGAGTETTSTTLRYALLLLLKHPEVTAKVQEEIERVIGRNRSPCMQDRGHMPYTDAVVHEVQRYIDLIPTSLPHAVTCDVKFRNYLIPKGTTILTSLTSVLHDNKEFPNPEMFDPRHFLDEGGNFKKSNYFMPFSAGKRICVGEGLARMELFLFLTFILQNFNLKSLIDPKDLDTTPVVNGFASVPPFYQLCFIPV
Procedure: as §8, §9

c-Raf-1 = c-Raf-1 (Homo sapiens, UniProt P04049); experiment: c-Raf-1 biochemical kinase inhibition (AlphaScreen, biotin-MEK1 substrate); details: 100 μM ATP
Sequence of c-Raf-1 (P04049 whole entry): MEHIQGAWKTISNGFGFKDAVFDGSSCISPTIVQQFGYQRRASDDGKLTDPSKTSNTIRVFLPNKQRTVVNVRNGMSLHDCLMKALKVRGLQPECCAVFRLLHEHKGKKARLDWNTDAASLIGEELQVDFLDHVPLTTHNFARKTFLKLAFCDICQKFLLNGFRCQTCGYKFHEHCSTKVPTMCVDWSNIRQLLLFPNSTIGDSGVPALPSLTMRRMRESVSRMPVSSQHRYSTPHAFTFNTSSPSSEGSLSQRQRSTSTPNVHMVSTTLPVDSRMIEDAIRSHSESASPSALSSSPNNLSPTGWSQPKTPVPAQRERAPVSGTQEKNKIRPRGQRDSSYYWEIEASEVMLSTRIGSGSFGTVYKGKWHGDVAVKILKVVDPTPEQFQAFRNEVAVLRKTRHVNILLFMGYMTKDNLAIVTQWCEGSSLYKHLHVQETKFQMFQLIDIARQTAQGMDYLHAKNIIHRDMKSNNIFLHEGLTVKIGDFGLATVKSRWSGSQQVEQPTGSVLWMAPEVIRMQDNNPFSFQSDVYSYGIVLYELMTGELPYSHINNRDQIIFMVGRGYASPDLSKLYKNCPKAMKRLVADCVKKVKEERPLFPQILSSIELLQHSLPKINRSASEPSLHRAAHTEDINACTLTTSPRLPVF
Procedure: as §7

CYP2D6 = CYP2D6 (Homo sapiens, UniProt P10635); experiment: CYP2D6 inhibition (fluorescent substrate); assay type: in vitro ADME; details: CYP2D6, AMMC substrate; read-out: Cyp IC50 2D6
Sequence of CYP2D6 (P10635 whole entry): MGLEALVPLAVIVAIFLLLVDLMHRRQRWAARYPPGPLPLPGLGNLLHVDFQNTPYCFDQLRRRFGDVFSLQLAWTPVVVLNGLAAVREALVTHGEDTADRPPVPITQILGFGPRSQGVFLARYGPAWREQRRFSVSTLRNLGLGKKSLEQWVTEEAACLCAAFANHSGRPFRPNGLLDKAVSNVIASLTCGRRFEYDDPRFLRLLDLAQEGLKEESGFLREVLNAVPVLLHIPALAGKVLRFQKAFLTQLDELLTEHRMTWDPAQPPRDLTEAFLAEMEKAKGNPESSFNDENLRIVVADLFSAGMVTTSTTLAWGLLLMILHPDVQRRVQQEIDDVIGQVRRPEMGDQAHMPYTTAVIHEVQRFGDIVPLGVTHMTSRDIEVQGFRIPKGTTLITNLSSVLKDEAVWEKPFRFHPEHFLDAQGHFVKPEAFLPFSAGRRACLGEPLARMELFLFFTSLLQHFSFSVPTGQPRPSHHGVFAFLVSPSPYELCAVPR
Procedure: as §8, §9

pIC50 [1] | pIC50 [3] | pIC50 [4] | pIC50 [5] | pIC50 (B-Raf) | pIC50 (B-Raf V600E) | pIC50 (CYP1A2) | pIC50 (CYP3A4(BQ)) | pIC50 (CYP2C9) | pIC50 (CYP3A4(BFC)) | pIC50 (CYP2C19) | pIC50 (c-Raf-1) | pIC50 (CYP2D6) | SMILES | turbidity threshold (L, M, H) 7.4 ([2]; HEPES pH 7.4) | turbidity threshold (L, M, H) 4.5 ([2]; SIF pH 4.5) | turbidity threshold (L, M, H) 6.8 ([2]; SIF pH 6.8) | turbidity threshold (L, M, H) 1.4 ([2]; buffer pH 1.4 (SGF))
< 5.00 | > 5.00 | < 5.00 | – | – | – | – | – | – | – | – | – | – | N#Cc1cnc2[nH]cc(C(=O)c3cccc(NS(=O)(=O)c4cccnc4)c3F)c2c1 [P-2086, Pyridine-3-sulfonic acid [3-(5-cyano-1H-pyrrolo[2,3-b]pyridine-3-carbonyl)-2-fluoro-phenyl]-amide] | H (high solubility if the threshold concentration is >250 μM) | M (moderate solubility if the threshold concentration is 31.3 μM to 250 μM) | M (moderate solubility if the threshold concentration is 31.3 μM to 250 μM) | M (moderate solubility if the threshold concentration is 31.3 μM to 250 μM)
< 5.00 | > 5.30 | < 5.00 | > 5.00 | – | – | – | – | – | – | – | – | – | O=C(c1c(F)ccc(NS(=O)(=O)c2cccnc2)c1F)c1c[nH]c2nccc(Cl)c12 [P-2074, Pyridine-3-sulfonic acid [3-(4-chloro-1H-pyrrolo[2,3-b]pyridine-3-carbonyl)-2,4-difluoro-phenyl]-amide] | – | – | – | –
– | > 6.00 | < 5.00 | – | > 8.00 | > 8.00 | – | – | – | – | – | – | – | CCCS(=O)(=O)Nc1ccc(F)c(C(=O)c2c[nH]c3ncc(-c4cnc(OCCCN(C)C)nc4)cc23)c1F [P-2203, Propane-1-sulfonic acid (3-{5-[2-(3-dimethylamino-propoxy)-pyrimidin-5-yl]-1H-pyrrolo[2,3-b]pyridine-3-carbonyl}-2,4-difluoro-phenyl)-amide] | – | – | – | –
– | – | – | – | > 8.00 | > 8.00 | < 5.00 | < 5.00 | < 5.00 | < 5.00 | < 5.00 | > 8.00 | < 5.00 | CCCS(=O)(=O)Nc1ccc(F)c(C(=O)c2c[nH]c3ncc(-c4ccc(S(=O)(=O)C(C)C)cc4)cc23)c1F [P-2223, Propane-1-sulfonic acid (2,4-difluoro-3-{5-[4-(propane-2-sulfonyl)-phenyl]-1H-pyrrolo[2,3-b]pyridine-3-carbonyl}-phenyl)-amide] | – | – | – | –
